Experimental data published in ChEMBL document CHEMBL1154380, “Lipocarbazoles, secondary metabolites from Tsukamurella pseudospumae Acta 1857 with antioxidative activity” (J Nat Prod, 2009).
Active and inactive are the calls of the source. The rule behind the calls is not given here.

How the values were obtained:
Staphylococcus aureus = experiment: Antibacterial activity against Staphylococcus aureus DSM 20231 at 1 mg/ml after 24 hrs by disk diffusion assay; assay type: functional, organism-based
Penicillium chrysogenum = experiment: Antifungal activity against Penicillium notatum Tu 136 at 1 mg/ml after 48 hrs by disk diffusion assay; assay type: functional, organism-based
Pseudomonas fluorescens = experiment: Antibacterial activity against Pseudomonas fluorescens DSM 50090 at 1 mg/ml after 24 hrs by disk diffusion assay; assay type: functional, organism-based
Bacillus subtilis = experiment: Antibacterial activity against Bacillus subtilis DSM 10 at 1 mg/ml after 24 hrs by disk diffusion assay; assay type: functional, organism-based
[1] = test system: Paenarthrobacter aurescens; experiment: Antibacterial activity against Arthrobacter aurescens DSM 20166 at 1 mg/ml after 24 hrs by disk diffusion assay; assay type: functional, organism-based
[2] = test system: Streptomyces viridochromogenes; experiment: Antibacterial activity against Streptomyces viridochromogenes Tu 57 at 1 mg/ml after 24 hrs by disk diffusion assay; assay type: functional, organism-based
Candida albicans = experiment: Antifungal activity against Candida albicans Tu 164 at 1 mg/ml after 48 hrs by disk diffusion assay; assay type: functional, organism-based
Brevibacillus brevis = experiment: Antibacterial activity against Brevibacillus brevis DSM 30 at 1 mg/ml after 24 hrs by disk diffusion assay; assay type: functional, organism-based
Proteus mirabilis = experiment: Antibacterial activity against Proteus mirabilis ATCC 35501 at 1 mg/ml after 24 hrs by disk diffusion assay; assay type: functional, organism-based
Saccharomyces cerevisiae = experiment: Antifungal activity against Saccharomyces cerevisiae ATCC 9080 at 1 mg/ml after 48 hrs by disk diffusion assay; assay type: functional, organism-based
Escherichia coli = experiment: Antibacterial activity against Escherichia coli K-12 at 1 mg/ml after 24 hrs by disk diffusion assay; assay type: functional, organism-based
Botrytis cinerea = experiment: Antifungal activity against Botrytis cinerea Tu 157 at 1 mg/ml after 48 hrs by disk diffusion assay; assay type: functional, organism-based
[3] = test system: Radical scavenging activity; experiment: Antioxidant activity assessed as DPPH radical scavenging activity after 30 mins; assay type: functional

IC50 [3] [µM] | SMILES | Activity (Staphylococcus aureus) | Activity (Penicillium chrysogenum) | Activity (Pseudomonas fluorescens) | Activity (Bacillus subtilis) | Activity [1] | Activity [2] | Activity (Candida albicans) | Activity (Brevibacillus brevis) | Activity (Proteus mirabilis) | Activity (Saccharomyces cerevisiae) | Activity (Escherichia coli) | Activity (Botrytis cinerea)
 | CCCCC/C=C\C/C=C\CCCCCCCc1c(C)c(O)cc2c1[nH]c1ccccc12 | inactive | inactive | inactive | inactive | inactive | inactive | inactive | inactive | inactive | inactive | inactive | inactive
 | CC/C=C\C/C=C\C/C=C\CCCCCCCc1c(C)c(O)cc2c1[nH]c1ccccc12 | inactive | inactive | inactive | inactive | inactive | inactive | inactive | inactive | inactive | inactive | inactive | inactive
10.5 | CCCCCCCCCCCCCCCCCc1c(C)c(O)cc2c1[nH]c1ccccc12 | inactive | inactive | inactive | inactive | inactive | inactive | inactive | inactive | inactive | inactive | inactive | inactive
13.4 | O=C1O[C@H]([C@@H](O)CO)C(O)=C1O [ASCORBIC ACID] |  |  |  |  |  |  |  |  |  |  |  | 
8.7 | CCCCCCCC/C=C\CCCCCCCc1c(C)c(O)cc2c1[nH]c1ccccc12 [LIPOCARBAZOLE A3] | inactive | inactive | inactive | inactive | inactive | inactive | inactive | inactive | inactive | inactive | inactive | inactive
4.4 | CCCOC(=O)c1cc(O)c(O)c(O)c1 [PROPYL GALLATE] |  |  |  |  |  |  |  |  |  |  |  | 
